Results from patent US12303497B2, “Anti-androgens for the treatment of metastatic castration-sensitive prostate cancer” (priority 2019, dated 2025).

How the values were obtained:
[1] = molecular target: T1, CYP2C8 (Homo sapiens, UniProt P10632); assay: Co-administration with gemfibrozil (strong CYP2C8 inhibitor); format: in vivo; design: endogenous in cells; host or cells: human subjects, in vivo; conditions: ERLEADA 240 mg single dose with gemfibrozil
T1 sequence (P10632 1-490): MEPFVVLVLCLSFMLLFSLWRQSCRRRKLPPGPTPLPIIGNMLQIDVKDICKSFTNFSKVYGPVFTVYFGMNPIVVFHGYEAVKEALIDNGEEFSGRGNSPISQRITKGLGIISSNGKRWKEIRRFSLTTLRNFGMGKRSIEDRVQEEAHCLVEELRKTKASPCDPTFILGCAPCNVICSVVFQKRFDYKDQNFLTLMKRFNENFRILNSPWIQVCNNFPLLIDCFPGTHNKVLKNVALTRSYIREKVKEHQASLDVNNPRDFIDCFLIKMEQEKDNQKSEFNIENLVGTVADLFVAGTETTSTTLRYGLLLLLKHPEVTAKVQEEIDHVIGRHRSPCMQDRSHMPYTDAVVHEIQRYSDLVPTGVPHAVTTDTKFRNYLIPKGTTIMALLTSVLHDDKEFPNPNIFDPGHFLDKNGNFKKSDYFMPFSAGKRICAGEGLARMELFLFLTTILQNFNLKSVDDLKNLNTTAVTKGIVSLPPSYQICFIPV

[2] = molecular target: organic anion transporter 1 (Homo sapiens, UniProt Q4U2R8); assay: In vitro transporter inhibition
[3] = molecular target: CYP3A4 (Homo sapiens, UniProt P08684); assay: Contribution of CYP3A4 in the metabolism of apalutamide; design: endogenous in cells; host or cells: human subjects, in vivo; conditions: estimated
Text: Metabolism is the main route of elimination of apalutamide.

[4] = molecular target: T1, CYP2C8; assay: In vitro CYP inhibition
[5] = Ionization under physiological pH; format: physicochemical; conditions: relevant physiological pH condition
[6] = molecular target: OATP1B1 (Homo sapiens, UniProt Q9Y6L6); assay: In vitro transporter substrate study
[7] = tested on: patients with metastatic castration-sensitive prostate cancer (mCSPC); assay: Phase 3 study (TITAN) of apalutamide plus ADT versus placebo plus ADT: efficacy; format: in vivo, human
Description: The data presented herein as associated with this study reflects the state of this study at the time of this filing. The study was conducted at 260 sites in 23 countries. Review boards at all participating institutions approved the study, which was conducted in accordance with current International Conference on Harmonization guidelines for Good Clinical Practice and according to Declaration of Helsinki principles. All patients provided written informed consent. An independent data-monitoring committee was commissioned by the sponsor to monitor safety and efficacy before unblinding and make study conduct recommendations. Data were transcribed by personnel at each site from source documents into sponsor-prepared electronic case report forms. Blinding of investigators, patients, study site personnel, and sponsor study team to randomization codes was maintained until study completion, independent data-monitoring committee recommendation, or individual patient medical need.
Patients were stratified by Gleason score at diagnosis (≤7 vs. >7), region (North America and European Union vs. all other countries), and prior treatment with docetaxel (yes vs. no). A Screening Phase of up to 28 days before randomization established study eligibility. Subjects will receive/received treatment in 28-day cycles during the Treatment Phase until disease progression or the occurrence of unacceptable treatment-related toxicity or the sponsor terminates the study. […] During the Follow-up Phase, data collection (every 4 months) will include survival, additional data on secondary endpoints, date and type of disease progression (radiographic, PSA, clinical or a combination) on the first subsequent therapy for prostate cancer, and subsequent therapy for prostate cancer. Data collection in follow-up will continue until the subject dies, withdraws consent, is lost to follow-up or the study is terminated by the sponsor. The Brief Pain Inventory Short Form (BPI SF), Brief Fatigue Inventory (BFI), and EQ-5D-5L patient-report outcome (PRO) measures will also continue in the Follow-up Phase up to 12 months after treatment discontinuation.
Eligible patients were required to have documented adenocarcinoma of the prostate and distant metastatic disease documented by ≥1 lesion on bone scan, with or without visceral or lymph node involvement. […] Patients were castration sensitive (i.e., patients who are not receiving ADT at the time of progression). Previous treatment for prostate cancer was limited to prior docetaxel (maximum six cycles, no evidence of progression during treatment or before randomization), ADT for ≤6 months for metastatic castration-sensitive prostate cancer or ≤3 years total duration for localized prostate cancer, one course of radiation or surgical therapy for symptoms associated with metastatic disease, and other localized treatments (e.g., radiation therapy, prostatectomy) completed ≥1 year before randomization. Patients who had received a gonadotropin-releasing hormone agonist ≤28 days before randomization were required to take a first-generation antiandrogen (i.e., biclutamide, flutamide, or nilutamide) for ≥14 days before randomization. Antiandrogen must have been discontinued before randomization. Patients with severe angina, myocardial infarction, congestive heart failure, arterial/venous thromboembolic events, history of or predisposition for seizure, or recent ventricular arrhythmias were excluded.

[8] = Effect of food on apalutamide pharmacokinetics (healthy subjects); format: in vivo, human
Description: Median time to reach tmax was delayed approximately 2 hours with food.

[9] = molecular target: organic anion transporter 3 (OAT3) (Homo sapiens, UniProt Q8TCC7); assay: In vitro transporter inhibition
organic anion transporter 3 (OAT3), sequence (Q8TCC7 whole entry): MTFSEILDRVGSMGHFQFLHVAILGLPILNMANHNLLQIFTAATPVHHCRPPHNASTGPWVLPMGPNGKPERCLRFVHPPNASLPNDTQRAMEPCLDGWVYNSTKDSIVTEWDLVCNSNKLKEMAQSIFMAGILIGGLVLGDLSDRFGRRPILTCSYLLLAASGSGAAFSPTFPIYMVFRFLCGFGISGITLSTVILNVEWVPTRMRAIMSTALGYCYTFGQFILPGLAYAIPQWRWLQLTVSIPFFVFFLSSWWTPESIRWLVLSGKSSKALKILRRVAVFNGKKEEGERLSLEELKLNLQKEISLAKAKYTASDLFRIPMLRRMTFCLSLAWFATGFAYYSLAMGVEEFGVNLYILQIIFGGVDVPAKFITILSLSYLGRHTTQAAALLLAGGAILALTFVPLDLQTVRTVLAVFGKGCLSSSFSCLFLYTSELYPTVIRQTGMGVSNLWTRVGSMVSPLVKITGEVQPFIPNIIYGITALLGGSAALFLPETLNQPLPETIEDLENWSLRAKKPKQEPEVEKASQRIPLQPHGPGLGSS

CYP3A4, sequence (P08684 whole entry): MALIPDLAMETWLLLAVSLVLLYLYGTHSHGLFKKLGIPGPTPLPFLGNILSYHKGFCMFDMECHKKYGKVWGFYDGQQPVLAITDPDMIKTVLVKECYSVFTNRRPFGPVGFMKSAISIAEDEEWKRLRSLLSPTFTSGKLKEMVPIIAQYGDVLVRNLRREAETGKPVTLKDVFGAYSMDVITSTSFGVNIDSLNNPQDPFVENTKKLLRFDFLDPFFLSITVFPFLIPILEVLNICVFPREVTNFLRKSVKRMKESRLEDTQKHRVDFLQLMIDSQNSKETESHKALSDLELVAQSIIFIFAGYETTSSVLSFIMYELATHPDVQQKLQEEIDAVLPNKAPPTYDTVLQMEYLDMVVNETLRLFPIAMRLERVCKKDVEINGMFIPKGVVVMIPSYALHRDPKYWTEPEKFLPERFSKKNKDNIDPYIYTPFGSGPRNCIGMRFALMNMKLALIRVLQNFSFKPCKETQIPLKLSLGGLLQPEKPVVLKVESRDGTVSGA
organic anion transporter 1, sequence (Q4U2R8 whole entry): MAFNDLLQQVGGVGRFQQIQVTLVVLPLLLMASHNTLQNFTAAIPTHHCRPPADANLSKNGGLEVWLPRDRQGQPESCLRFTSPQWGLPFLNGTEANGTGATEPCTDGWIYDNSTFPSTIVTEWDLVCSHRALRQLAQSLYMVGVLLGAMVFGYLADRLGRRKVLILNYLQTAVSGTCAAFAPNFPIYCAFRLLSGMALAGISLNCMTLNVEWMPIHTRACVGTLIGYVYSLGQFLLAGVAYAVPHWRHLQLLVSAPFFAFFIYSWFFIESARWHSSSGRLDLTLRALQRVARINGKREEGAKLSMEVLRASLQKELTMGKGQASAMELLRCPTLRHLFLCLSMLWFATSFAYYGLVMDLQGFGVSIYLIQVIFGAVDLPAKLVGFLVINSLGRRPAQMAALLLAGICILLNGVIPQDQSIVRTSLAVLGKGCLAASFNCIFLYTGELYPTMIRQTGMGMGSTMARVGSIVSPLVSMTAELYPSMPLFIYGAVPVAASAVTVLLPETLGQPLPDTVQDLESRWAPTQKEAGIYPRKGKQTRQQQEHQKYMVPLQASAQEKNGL
OATP1B1, sequence (Q9Y6L6 whole entry): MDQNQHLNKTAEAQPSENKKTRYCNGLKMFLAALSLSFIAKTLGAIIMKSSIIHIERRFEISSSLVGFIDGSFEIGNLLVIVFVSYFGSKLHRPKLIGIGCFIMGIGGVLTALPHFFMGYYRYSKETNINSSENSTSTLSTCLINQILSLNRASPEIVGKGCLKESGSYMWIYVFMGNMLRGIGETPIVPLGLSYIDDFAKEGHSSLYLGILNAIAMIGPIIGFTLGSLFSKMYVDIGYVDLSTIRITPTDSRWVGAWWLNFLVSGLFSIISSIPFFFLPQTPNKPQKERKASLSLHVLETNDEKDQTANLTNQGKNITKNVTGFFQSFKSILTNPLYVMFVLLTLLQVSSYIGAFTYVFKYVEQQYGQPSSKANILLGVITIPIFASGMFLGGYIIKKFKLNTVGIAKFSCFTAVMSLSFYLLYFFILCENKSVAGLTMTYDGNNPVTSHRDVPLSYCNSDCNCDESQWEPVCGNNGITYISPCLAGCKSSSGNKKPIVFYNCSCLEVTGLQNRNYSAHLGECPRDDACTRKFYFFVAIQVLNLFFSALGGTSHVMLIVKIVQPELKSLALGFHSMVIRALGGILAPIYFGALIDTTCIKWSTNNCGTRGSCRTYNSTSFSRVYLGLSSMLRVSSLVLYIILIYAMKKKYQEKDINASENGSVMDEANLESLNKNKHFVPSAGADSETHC

CNC(=O)c1ccc(N2C(=S)N(c3cnc(C#N)c(C(F)(F)F)c3)C(=O)C23CCC3)cc1F [Apalutamide, 4-[7-(6-cyano-5-trifluoromethylpyridin-3-yl)-8-oxo-6-thioxo-5,7-diazaspiro[3.4]oct-5-yl]-2-fluoro-N-methylbenzamide]
Apalutamide AUC increase [1]: 68% | Apalutamide Cmax decrease [1]: 21% | Inhibition of organic anion transporter 1 [2]: do not inhibit | Contribution of CYP3A4 in the metabolism of apalutamide ([3]; at steady-state): 37% | Contribution of CYP3A4 in the metabolism of apalutamide ([3]; following single dose): 13% | CYP2C8 inhibition [4]: moderate inhibitors | Ionization [5]: not ionizable | Substrate for OATP1B1 [6]: not | Treatment discontinuations as the result of progressive disease ([7]; 99 patients): 19% | Deaths at cutoff for the first interim analysis ([7]; 525 patients randomized): 83 | Radiographic progression events ([7]; 525 patients randomized): 134 | Median radiographic progression-free survival ([7]; final analysis for rPFS): not reached | Overall survival, 24-month event-free rate ([7]; in vivo): 82% | Patients in whom PSA reached undetectable levels (PSA<0.2 ng per ml) ([7]; in vivo): 68% | Radiographic progression-free survival, 24-month event-free rate ([7]; in vivo): 68% | Change in FACT-P from baseline (health-related quality of life) ([7]; mixed-effect repeated measures model): maintained health-related quality of life and no between-group difference | Patients who discontinued because of disease progression ([7]; n = 525): 99 (18.9) no. (%) | Reduction in risk of death ([7]; vs placebo + ADT): 33% | Reduction in risk of radiographic progression or death ([7]; vs placebo + ADT): 52% | Change in Cmax and AUC with a high-fat meal vs fasting [8]: no clinically relevant changes | Inhibition of OAT3 [9]: inhibit
